Data published in PubChem BioAssay (NCI).
Where “and” joins values, the source holds several entries; their conditions need not be identical. Equal values may be shown once.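 Each compound was tested at five concentrations against cells in 96-well plates for 48 hours. Here, GI50 denotes the concentration required for 50% inhibition of growth. TGI: total growth inhibition.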

Tests used:
Assay in all cases: NCI tumour cell line growth inhibition, 48 h
A549 NSCLC = system: A549 NSCLC
BT-549 breast = system: BT-549 breast
CAKI-1 renal = system: CAKI-1 renal
CCRF-CEM leukemia = system: CCRF-CEM leukemia
HS 578T breast = system: HS 578T breast
LOX IMVI melanoma = system: LOX IMVI melanoma
MCF7 breast = system: MCF7 breast
MDA-MB-435 = system: MDA-MB-435
NCI/ADR-RES ovarian = system: NCI/ADR-RES ovarian
OVCAR-3 ovarian = system: OVCAR-3 ovarian
SF-295 CNS = system: SF-295 CNS
SF-539 CNS = system: SF-539 CNS
SK-MEL-28 melanoma = system: SK-MEL-28 melanoma
SK-OV-3 ovarian = system: SK-OV-3 ovarian
SNB-75 CNS = system: SNB-75 CNS
TK-10 renal = system: TK-10 renal
U251 CNS = system: U251 CNS
UACC-62 melanoma = system: UACC-62 melanoma
UO-31 renal = system: UO-31 renal

Row | Compound | TGI (A549 NSCLC) | TGI (BT-549 breast) | TGI (CAKI-1 renal) | TGI (CCRF-CEM leukemia) | TGI (HS 578T breast) | TGI (LOX IMVI melanoma) | TGI (MCF7 breast) | TGI (MDA-MB-435) | TGI (NCI/ADR-RES ovarian) | TGI (OVCAR-3 ovarian) | TGI (SF-295 CNS) | TGI (SF-539 CNS) | TGI (SK-MEL-28 melanoma) | TGI (SK-OV-3 ovarian) | GI50 (SNB-75 CNS) | TGI (SNB-75 CNS) | TGI (TK-10 renal) | TGI (U251 CNS) | TGI (UACC-62 melanoma) | TGI (UO-31 renal)
1 | COCC1OC(Sc2ccccc2)C(O)C(OC)C1OC (centres undefined) | > 100 µM | > 100 µM | > 100 µM | > 100 µM | > 100 µM | > 100 µM | > 100 µM | > 100 µM | > 100 µM | > 100 µM | > 100 µM | > 100 µM | > 100 µM | > 100 µM | > 100 µM and 10.1 µM | > 100 µM | > 100 µM | > 100 µM | > 100 µM | > 100 µM
2 | O=C(NC(Cc1c[nH]c2ccccc12)C(=O)Nc1ccc(Br)cc1)OCc1ccccc1 (centres undefined) | > 100 µM | 29.8 µM | 34.6 µM | 36 µM | 56.3 µM | 22.7 µM | 29.3 µM | 22.1 µM | 54.3 µM | 36.6 µM | 23.9 µM | 29.2 µM | 30.5 µM | 46.3 µM | – | 34.7 µM | 52.8 µM | 25.1 µM | 22 µM | 27.4 µM
3 | CCCn1c2ccccc2c2ccc3c(c21)C(=O)C=CC3=O | > 10 µM | 4.9 µM | 6.1 µM | 0.47 µM | > 10 µM | > 10 µM | 4.59 µM | 5.29 µM | > 6.93 µM | 4.88 µM | > 10 µM | > 6.41 µM | > 3.16 µM | > 10 µM | – | > 10 µM | 3.76 µM | > 10 µM | > 10 µM | > 10 µM
4 | CCOC(=O)c1c(NC(=O)c2cccs2)sc2c1CCCC2 | > 100 µM | > 100 µM | > 100 µM | > 100 µM | 76.9 µM | > 100 µM | > 100 µM | > 100 µM | > 100 µM | > 100 µM | > 100 µM | 57.4 µM | > 100 µM | 79.5 µM | – | 81.8 µM | > 86.1 µM | > 91.9 µM | > 100 µM | > 100 µM
5 | CCOC(=O)c1c(-c2ccc(OC)cc2)c(C#N)c(=S)n(C2OC(COC(C)=O)C(OC(C)=O)C(OC(C)=O)C2OC(C)=O)c1-c1ccccc1 (centres undefined) | > 100 µM | > 100 µM | > 100 µM | > 100 µM | > 100 µM | > 100 µM | > 100 µM | > 100 µM | > 100 µM | > 100 µM | > 100 µM | > 100 µM | > 100 µM | > 100 µM | – | > 100 µM | > 100 µM | > 100 µM | > 100 µM | > 100 µM
6 | Nc1ncnc2c1ccn2C/C=C\CO | > 100 µM | > 100 µM | > 100 µM | > 100 µM | > 100 µM | > 100 µM | > 100 µM | > 100 µM | > 100 µM | > 100 µM | > 100 µM | > 100 µM | > 100 µM | > 100 µM | – | > 100 µM | > 100 µM | > 100 µM | > 100 µM | > 100 µM
7 | COC(=O)C1=C(C)NC2=C(C(=O)c3ccccc32)C1c1cn(-c2ccccc2)nc1-c1ccccc1 (centres undefined) | > 100 µM | > 100 µM | > 100 µM | > 100 µM | > 100 µM | > 100 µM | > 100 µM | > 100 µM | > 100 µM | > 100 µM | > 100 µM | > 100 µM | > 100 µM | > 100 µM | – | > 100 µM | > 100 µM | > 100 µM | > 100 µM | > 100 µM
8 | O=C(C=P(c1ccccc1)(c1ccccc1)c1ccccc1)c1ccc(-c2cccc([N+](=O)[O-])c2)s1 | > 100 µM | > 100 µM | > 100 µM | > 100 µM | > 100 µM | > 100 µM | > 100 µM | > 100 µM | > 100 µM | > 100 µM | > 100 µM | > 100 µM | > 100 µM | > 100 µM | – | 76.3 µM | > 100 µM | > 100 µM | > 100 µM | > 100 µM
9 | CC(=O)O[C@H]1C[C@H]2[C@@H](OC(C)=O)/C=C3\C[C@](C)(C(=O)[C@H](O)C(=C1C)C2(C)C)[C@@H](O)C[C@@H]3OC(=O)[C@H](O)[C@H](c1ccccc1)N(C)C | > 100 µM | > 100 µM | > 100 µM | > 100 µM | > 100 µM | > 100 µM | > 100 µM | > 100 µM | > 100 µM | > 100 µM | > 100 µM | > 100 µM | > 100 µM | > 100 µM | – | > 100 µM | > 100 µM | > 100 µM | > 100 µM | > 100 µM
10 | COC(=O)CCC1=CCC2(SC)C(=O)Nc3cccc1c32 (centres undefined) | > 100 µM | > 100 µM | > 100 µM | > 100 µM | > 100 µM | > 100 µM | > 100 µM | > 100 µM | > 100 µM | > 100 µM | > 100 µM | > 100 µM | > 100 µM | > 100 µM | – | > 100 µM | > 100 µM | > 100 µM | > 100 µM | > 100 µM
11 | Cc1c([N+](=O)[O-])ccc2c(NCCCN(C)C)ccnc12 | 40.5 µM | 36.2 µM | > 100 µM | > 100 µM | 74.1 µM | 30.9 µM | 37.2 µM | 34.9 µM | > 100 µM | 50.8 µM | 60.4 µM | 31.2 µM | 54.5 µM | > 100 µM | – | > 100 µM | 80.6 µM | > 100 µM | 39.4 µM | 30.5 µM
12 | COC(=O)c1cc2c3c(ccc2[nH]1)N(C(=O)c1cc2cc(OC)c(OC)c(OC)c2[nH]1)CC3CCl (centres undefined) | > 100 µM | > 100 µM | > 100 µM | > 100 µM | > 100 µM | > 100 µM | > 100 µM | > 100 µM | > 91.8 µM | > 100 µM | > 100 µM | > 79.2 µM | > 100 µM | > 100 µM | – | > 100 µM | > 100 µM | > 100 µM | > 100 µM | > 100 µM
